Data published in PMC5379148, “A phase I study of intravenous and oral rucaparib in combination with chemotherapy in patients with advanced solid tumours” (British Journal of Cancer, 2017).
Like-named read-outs stand apart in the source and are kept apart here.

Legend:
[1] = tested on: patients with advanced solid tumours
From the text: This study was an open-label, multicentre, dose-escalating phase I study of rucaparib administered in combination with one of four different standard chemotherapeutic regimens (NCT01009190). […] The primary objective was to assess safety and tolerability and estimate the maximum tolerated dose (MTD) and/or select the recommended phase II dose of rucaparib in combination with chemotherapy. Secondary objectives were to characterise the pharmacokinetics (PK) and assess the antitumour activity of rucaparib when combined with chemotherapy.
Safety assessments included collection of adverse events (AEs) and serious AEs (defined by National Cancer Institute Common Terminology Criteria for Adverse Events version 3.0; [Pedersen et al, 2013]), as well as vital signs, physical examination, 12-lead electrocardiogram, laboratory assessments, and verification of concurrent medications. Safety variables and demographic data were presented descriptively. The safety analysis set included all enrolled patients who started treatment.

[2] = tested on: advanced ovarian or breast cancer associated with a germline BRCA1/2 mutation; set-up: method as in Drew et al, 2016; conditions: single agent, ref Drew et al, 2016, cited from earlier work
[3] = tested on: advanced solid tumours; assay: Investigator-assessed tumour response (RECIST version 1.1); type: in vivo, human
Method: Antitumour activity was assessed by the investigators according to Response Evaluation Criteria in Solid Tumor version 1.1 (RECIST) ([Eisenhauer et al, 2009]) through radiological tumour assessments performed every two cycles and/or at the end of treatment, whichever occurred first.

[4] = investigator-assessed, RECIST 1.1, All patients (N=85), all arms

Structure (SMILES): CNCc1ccc(-c2[nH]c3cc(F)cc4c3c2CCNC4=O)cc1 [rucaparib]
- Patients who died of disease progression while on study ([1]; across treatment arms, assessed as unrelated to study drug): 7.1%
- Anaemia ([1]; human, in vivo): 31 (36.5) n (%)
- Asthenia ([1]; human, in vivo): 3 (3.5) n (%)
- Constipation ([1]; human, in vivo): 22 (25.9) n (%)
- Decreased appetite ([1]; human, in vivo): 17 (20.0) n (%)
- Diarrhoea ([1]; human, in vivo): 17 (20.0) n (%)
- Discontinued treatment with AE as the primary reason ([1]; human, in vivo): 18.4%
- Fatigue ([1]; human, in vivo): 45 (52.9) n (%)
- Grade ⩾3 AEs, patients ([1]; human, in vivo): 75.3%
- Grade ⩾3 anaemia, patients ([1]; human, in vivo): 11.8%
- Grade ⩾3 dyspnoea, patients ([1]; human, in vivo): 5.9%
- Grade ⩾3 fatigue, patients ([1]; human, in vivo): 12.9%
- Grade ⩾3 nausea, patients ([1]; human, in vivo): 7.1%
- Grade ⩾3 neutropenia, patients ([1]; human, in vivo): 27.1%
- Grade ⩾3 thrombocytopenia, patients ([1]; human, in vivo): 18.8%
- Grade ⩾3 vomiting, patients ([1]; human, in vivo): 5.9%
- Grade ⩾3 γ-glutamyltransferase increased, patients ([1]; human, in vivo): 5.9%
- Lethargy ([1]; human, in vivo): 15 (17.6) n (%)
- Leukopenia ([1]; human, in vivo): 7 (8.2) n (%)
- Lymphopenia ([1]; human, in vivo): 6 (7.1) n (%)
- Myalgia ([1]; human, in vivo): 7 (8.2) n (%)
- Nausea ([1]; human, in vivo): 48 (56.5) n (%)
- Neuropathy peripheral ([1]; human, in vivo): 10 (11.8) n (%)
- Neutropenia ([1]; human, in vivo): 32 (37.6) n (%)
- Patients who discontinued treatment because of AEs ([1]; human, in vivo): 25.9%
- Patients who discontinued treatment because of neutropenia ([1]; human, in vivo): 3.5%
- Patients who discontinued treatment because of platinum hypersensitivity ([1]; human, in vivo): 2.4%
- Patients who discontinued treatment because of thrombocytopenia ([1]; human, in vivo): 2.4%
- Stomatitis ([1]; human, in vivo): 14 (16.5) n (%)
- Thrombocytopenia ([1]; human, in vivo): 27 (31.8) n (%)
- Vomiting ([1]; human, in vivo): 28 (32.9) n (%)
- ≥1 treatment-related adverse event ([1]; human, in vivo): 80 (94.1) n (%)
- Alopecia ([1]; treatment-related, any grade, All patients (N = 85), all arms): 15 (17.6) n (%)
- response rate ([2]; continuous oral dosing): 18%
- response rate ([2]; intermittent intravenous (i.v.) dosing): 2%
- disease control rate (CR, PR, or SD for ⩾12 weeks) ([3]; across all cohorts, among patients with available data (77 of 85)): 68.8%
- partial responses that were confirmed ([3]; across all cohorts, of 9 patients with PR): 7 patients
- Best response: Complete response [3, 4]: 1 (1.2) n (%)
- Best response: Partial response [3, 4]: 9 (10.6) n (%)
- Best response: Progressive disease [3, 4]: 24 (28.2) n (%)
- Best response: Stable disease [3, 4]: 43 (50.6) n (%)
